IC50 data for 25 compounds are collected here from patent publication US20250382305A1 (PTC THERAPEUTICS, INC., priority 2022, published 2025).

One assay deals with ATXN3 pre-mRNA. The assay can be described thus: RT-qPCR Assay to Quantify Exon 4 Skipping in ATXN3 pre-mRNA in Cells. The class given is cell-based. The note with it: percent exon 4 skipping in ATXN3 pre-mRNA, RT-qPCR of cell lysates; average IC50. The method, boiled down:
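IC50 derives from a dose-response fit of percent exon 4 skipping, quantified by RT-qPCR on crude lysates. Compounds tested as 7-point 3.16-fold dilutions in duplicate; cells (10,000/well) were exposed for 24 h at 37 °C before lysis.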

In assay [1] the test system is Total ATXN3 (tATXN3) protein. The assay can be described thus: Endogenous Total ATXN3 (tATXN3) Protein Assay (MSD immunoassay of cell lysates). It is filed as cell-based. The note with it: average IC50, total ATXN3 protein in cell lysate after 48 h with compound (Table 1). The essentials:
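By electrochemiluminescent MSD sandwich immunoassay (mouse monoclonal capture, rabbit monoclonal and SULFO-TAG anti-rabbit detection), endogenous ATXN3 was quantified in lysates of cells treated 48 h at 37° C at 10,000 cells/well. Treatment used a 7-point 3.16-fold duplicate dilution series, with average IC50 grouped into star categories.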

pIC50: −log10 of the molar value.

For orientation: pIC50 means −log10 of the IC50, conventionally taken in molar units. Regarding `N[C@H]1CCCO[C@@H]1c1c(Br)c2nc(Cl)nc(NCc3cccs3)c2n1C(F)F` [Compound 248, 6-((2S,3S)-3-aminotetrahydro-2H-pyran-2-yl)-7-bromo-2-chloro-5-(difluoromethyl)-N-(thiophen-2-ylmethyl)-5H-pyrrolo[3,2-d]pyrimidin-4-amine], the pIC50 (in the assay on ATXN3 pre-mRNA; in assay [1]) was 6.52 to 7.52 each time.

Consider `N[C@@H]1CC=CC[C@H]1c1c(I)c2nc(Cl)nc(NCc3ccccc3)c2n1C(F)F` [Compound 424, 6-((1R,6R)-6-aminocyclohex-3-en-1-yl)-N-benzyl-2-chloro-5-(difluoromethyl)-7-iodo-5H-pyrrolo[3,2-d]pyrimidin-4-amine], for which the results for the pIC50 (with ATXN3 pre-mRNA; in assay [1]) were at least 7.52 and 6.52 to 7.52, respectively.

`N[C@H]1CCC[C@@H]1c1sc2c(NCc3cccs3)cc(Cl)nc2c1Cl` [Compound 1, 2-((1S,2S)-2-aminocyclopentyl)-3,5-dichloro-N-(thiophen-2-ylmethyl)thieno[3,2-b]pyridin-7-amine]: the negative logarithm of the IC50 (pIC50) (with ATXN3 pre-mRNA; in assay [1]) was at least 7.52 in each case.

`N[C@@H]1CC=CC[C@H]1c1sc2c(NCc3ccccc3)cc(Cl)nc2c1Br` [Compound 403, 2-((1R,6R)-6-aminocyclohex-3-en-1-yl)-N-benzyl-3-bromo-5-chlorothieno[3,2-b]pyridin-7-amine]: the pIC50 in the assay with ATXN3 pre-mRNA was 6.52 to 7.52; in assay [1], 6.00 to 6.52.

For `N[C@H]1CCCC[C@@H]1c1sc2c(NCc3cccs3)cc(Cl)nc2c1I` [Compound 57, 2-((1S,2S)-2-aminocyclohexyl)-5-chloro-3-iodo-N-(thiophen-2-ylmethyl)thieno[3,2-b]pyridin-7-amine], the pIC50 (in the assay with ATXN3 pre-mRNA; in assay [1]) was at least 7.52 each time.

In the case of “6-((2S,3S)-3-aminotetrahydro-2H-pyran-2-yl)-7-bromo-2-chloro-5-(difluoromethyl)-N-(furan-2-ylmethyl)-5H-pyrrolo[3,2-d]pyrimidin-4-amine [Compound 215]”, the pIC50 (in the assay with ATXN3 pre-mRNA; in assay [1]) was at least 7.52 throughout.

As for “2-((4R,5S)-5-aminoazepan-4-yl)-3-bromo-5-chloro-N-(thiophen-2-ylmethyl)thieno[3,2-b]pyridin-7-amine and 2-((4S,5S)-5-aminoazepan-4-yl)-3-bromo-5-chloro-N-(thiophen-2-ylmethyl)thieno[3,2-b]pyridin-7-amine [Compound 148]”, the pIC50 (in the assay with ATXN3 pre-mRNA; in assay [1]) was below 6.00 in each case.

“5-(5-chloro-2-((2R,3R)-3-(methylamino)tetrahydro-2H-pyran-2-yl)-7-((thiophen-2-ylmethyl)amino)thieno[3,2-b]pyridin-3-yl)pent-4-yn-1-ol and 5-(5-chloro-2-((2S,3S)-3-(methylamino)tetrahydro-2H-pyran-2-yl)-7-((thiophen-2-ylmethyl)amino)thieno[3,2-b]pyridin-3-yl)pent-4-yn-1-ol [Compound 309]”: the pIC50 (in the assay with ATXN3 pre-mRNA; in assay [1]) was 6.52 to 7.52 each time.

Consider `N[C@H]1CC=CC[C@@H]1c1sc2c(NCc3ccco3)nc(Cl)nc2c1Br` [Compound 168, 6-((1S,6S)-6-aminocyclohex-3-en-1-yl)-7-bromo-2-chloro-N-(furan-2-ylmethyl)thieno[3,2-d]pyrimidin-4-amine], for which the pIC50 (in the assay with ATXN3 pre-mRNA; in assay [1]) was at least 7.52 throughout.

Regarding `[2H]C1=C([2H])C([2H])([2H])[C@H](c2sc3c(NC([2H])([2H])c4ccccc4)cc(Cl)nc3c2C)[C@@H](N)C1([2H])[2H]` [Compound 322, 2-((1S,6S)-6-aminocyclohex-3-en-1-yl-2,2,3,4,5,5-d6)-5-chloro-3-methyl-N-(phenylmethyl-d2)thieno[3,2-b]pyridin-7-amine], the pIC50 (in the assay on ATXN3 pre-mRNA; in assay [1]) was 6.52 to 7.52 throughout.

As for `Cn1c([C@H]2CCOC[C@@H]2N)c(Br)c2nc(Cl)cc(NCc3cccs3)c21` [Compound 351, 2-((3R,4S)-3-aminotetrahydro-2H-pyran-4-yl)-3-bromo-5-chloro-1-methyl-N-(thiophen-2-ylmethyl)-1H-pyrrolo[3,2-b]pyridin-7-amine], the pIC50 (with ATXN3 pre-mRNA; in assay [1]) was 6.52 to 7.52 throughout.

Regarding “2-((2R,3R)-3-aminotetrahydrofuran-2-yl)-3-bromo-5-chloro-N-(thiophen-2-ylmethyl)thieno[3,2-b]pyridin-7-amine and 2-((2S,3S)-3-aminotetrahydrofuran-2-yl)-3-bromo-5-chloro-N-(thiophen-2-ylmethyl)thieno[3,2-b]pyridin-7-amine [Compound 151]”, the pIC50 (with ATXN3 pre-mRNA; in assay [1]) was 6.52 to 7.52 each time.

On to “4-(2-((1R,6R)-6-aminocyclohex-3-en-1-yl)-5-chloro-7-((thiophen-2-ylmethyl)amino)thieno[3,2-b]pyridin-3-yl)but-3-yn-1-ol and 4-(2-((1S,6S)-6-aminocyclohex-3-en-1-yl)-5-chloro-7-((thiophen-2-ylmethyl)amino)thieno[3,2-b]pyridin-3-yl)but-3-yn-1-ol [Compound 177]”, for which the negative logarithm of the IC50 (pIC50) (in the assay on ATXN3 pre-mRNA; in assay [1]) was at least 7.52 throughout.

For `N[C@@H]1COCC[C@H]1c1sc2c(NCc3cccs3)cc(Cl)nc2c1Cl.N[C@H]1COCC[C@@H]1c1sc2c(NCc3cccs3)cc(Cl)nc2c1Cl` (mixture of isomers) [Compound 272, 2-((3R,4S)-3-aminotetrahydro-2H-pyran-4-yl)-3,5-dichloro-N-(thiophen-2-ylmethyl)thieno[3,2-b]pyridin-7-amine and 2-((3S,4R)-3-aminotetrahydro-2H-pyran-4-yl)-3,5-dichloro-N-(thiophen-2-ylmethyl)thieno[3,2-b]pyridin-7-amine], the pIC50 (in the assay with ATXN3 pre-mRNA; in assay [1]) was 6.52 to 7.52 each time.

For `N[C@@H]1CCC[C@H]1c1sc2c(NCc3ccccc3)cc(Cl)nc2c1Cl` [Compound 167, 2-((1R,2R)-2-aminocyclopentyl)-N-benzyl-3,5-dichlorothieno[3,2-b]pyridin-7-amine], the pIC50 was 6.52 to 7.52 in the assay with ATXN3 pre-mRNA and 6.00 to 6.52 in assay [1].

`[2H]C1=C([2H])C([2H])([2H])[C@H](c2sc3c(NCc4cccs4)cc(Cl)nc3c2C)[C@@H](N)C1([2H])[2H]` [Compound 205, 2-((1S,6S)-6-aminocyclohex-3-en-1-yl-2,2,3,4,5,5-d6)-5-chloro-3-methyl-N-(thiophen-2-ylmethyl)thieno[3,2-b]pyridin-7-amine]: the pIC50 (with ATXN3 pre-mRNA; in assay [1]) was at least 7.52 in each case.

Turning to `N[C@@H]1CCCCCC[C@H]1c1sc2c(NCc3cccs3)cc(Cl)nc2c1I` [Compound 123, 2-((1R,2R)-2-aminocyclooctyl)-5-chloro-3-iodo-N-(thiophen-2-ylmethyl)thieno[3,2-b]pyridin-7-amine], the pIC50 (in the assay on ATXN3 pre-mRNA; in assay [1]) was below 6.00 in each case.

With `N[C@@H]1CCCC[C@@H]1c1sc2c(NCc3cccs3)cc(Cl)nc2c1Br` [Compound 52, 2-((1S,2R)-2-aminocyclohexyl)-3-bromo-5-chloro-N-(thiophen-2-ylmethyl)thieno[3,2-b]pyridin-7-amine], the pIC50 (in the assay on ATXN3 pre-mRNA; in assay [1]) was below 6.00 throughout.

With `C[C@@H]1C=C[C@H](C)[C@H](N)[C@H]1c1sc2c(NCc3ccco3)cc(Cl)nc2c1Cl` [Compound 450, 2-((1S,2R,5S,6S)-6-amino-2,5-dimethylcyclohex-3-en-1-yl)-3,5-dichloro-N-(furan-2-ylmethyl)thieno[3,2-b]pyridin-7-amine], the negative logarithm of the IC50 (pIC50) (in the assay on ATXN3 pre-mRNA; in assay [1]) was 6.00 to 6.52 each time.

Consider `N[C@H]1CCCCC[C@@H]1c1sc2c(NCc3cccs3)cc(Cl)nc2c1I` [Compound 163, 2-((1S,2S)-2-aminocycloheptyl)-5-chloro-3-iodo-N-(thiophen-2-ylmethyl)thieno[3,2-b]pyridin-7-amine], for which the pIC50 with ATXN3 pre-mRNA is at least 7.52; in assay [1] it was 6.52 to 7.52.

On to `Cc1c([C@@H]2OCCC[C@H]2N)sc2c(NCc3ccccc3)cc(Cl)nc12` [Compound 109, 2-((2R,3R)-3-aminotetrahydro-2H-pyran-2-yl)-N-benzyl-5-chloro-3-methylthieno[3,2-b]pyridin-7-amine], for which the pIC50 (with ATXN3 pre-mRNA; in assay [1]) was 6.52 to 7.52 throughout.

`N[C@H]1CC=CC[C@@H]1c1sc2c(NCc3cccs3)cc(Cl)nc2c1Cl` [Compound 196, 2-((1S,6S)-6-aminocyclohex-3-en-1-yl)-3,5-dichloro-N-(thiophen-2-ylmethyl)thieno[3,2-b]pyridin-7-amine]: the negative logarithm of the IC50 (pIC50) (in the assay on ATXN3 pre-mRNA; in assay [1]) was at least 7.52 in each case.

As for `N[C@@H]1CC=CC[C@H]1c1sc2c(NCc3cccs3)cc(Cl)nc2c1Cl.N[C@H]1CC=CC[C@@H]1c1sc2c(NCc3cccs3)cc(Cl)nc2c1Cl` (mixture of isomers) [Compound 431, 2-((1R,6R)-6-aminocyclohex-3-en-1-yl)-3,5-dichloro-N-(thiophen-2-ylmethyl)thieno[3,2-b]pyridin-7-amine and 2-((1S,6S)-6-aminocyclohex-3-en-1-yl)-3,5-dichloro-N-(thiophen-2-ylmethyl)thieno[3,2-b]pyridin-7-amine], the pIC50 (with ATXN3 pre-mRNA; in assay [1]) was at least 7.52 in each case.

As to `CC#CCNc1cc(Cl)nc2c(Br)c([C@H]3CCOC[C@@H]3N)sc12` [Compound 398, 2-((3R,4S)-3-aminotetrahydro-2H-pyran-4-yl)-3-bromo-N-(but-2-yn-1-yl)-5-chlorothieno[3,2-b]pyridin-7-amine], the pIC50 with ATXN3 pre-mRNA was 6.52 to 7.52; in assay [1], 6.00 to 6.52.

For the compound `Cc1c([C@H]2CC=CC[C@@H]2N)n(C(F)F)c2c(NCc3ccccc3)nc(Cl)nc12` [Compound 399, 6-((1S,6S)-6-aminocyclohex-3-en-1-yl)-N-benzyl-2-chloro-5-(difluoromethyl)-7-methyl-5H-pyrrolo[3,2-d]pyrimidin-4-amine], the pIC50 (in the assay on ATXN3 pre-mRNA; in assay [1]) was 6.00 to 6.52 each time.
